The results in this text go back to patent US5624902A, “Peptide inhibitors of calmodulin” (Torrey Pines Institute for Molecular Studies, priority 1995, dated 1997).

Square brackets hold non-standard residues; d marks the D form. Peptide text beside a SMILES is read from it.

The target of this experiment is calmodulin (Homo sapiens, UniProt P0DP23). Description: calcium-dependent phosphodiesterase assay (inhibition of calmodulin activity). Format: biochemical. Particulars: for inhibition at 50 µM: inhibition of calmodulin activation of phosphodiesterase at 50 μM peptide, PDE without calmodulin = 100%, Calmo = 0%; for IC50: concentration inhibiting 50% of calmodulin activity, assayed at 75 μM, 50 μM and 12.5 μM.

What is called inhibition is the drop in the measured response relative to a control, in per cent. For orientation: IC50 means the concentration at which inhibition is half-maximal.

Method: In this assay, calmodulin can be assayed by its ability to stimulate phosphodiesterase activity as determined by a two-step assay procedure illustrated by reactions (1) and (2).
During the first step of the assay cyclic adenosine 3'5'-monophosphate (cAMP) is incubated with calcium-activated phosphodiesterase (Cal-PDE), which hydrolyses the 3' bond producing adenosine 5'-monophosphate (5'-AMP). During the second step 5'-AMP is quantitatively converted into adenosine and inorganic phosphate (Pi) through the action of a 5'-nucleotidase. […] The amount of Pi formed is directly related to the phosphodiesterase activity which depends on the level of activation by calmodulin.
To sample assay tubes were added the following components: assay buffer, 25 μl; CaCl2, 5 μl; 5'-nucleotidase, 7.5 μl (stock solution is 10 units/ml); calmodulin 5 units; calmodulin inhibitor peptides to obtain the desired final concentration of 50 μM. The volume was then made up to 200 μl with water. Control blanks were prepared replacing the peptides with water. The added components were thoroughly mixed and the tubes incubated at 30° C. for 10 min. […] The samples were centrifuged to remove the protein precipitate and the 50 μl of the supernatant was withdrawn for phosphate measurement. […] The absorbance of the solution were read at 660 nm using water as a blank, identified as control "Calmo," as discussed in more detail below.
These three peptides commonly used in every assay as control of reproducibility of the assay.
In addition to the calcium-dependent phosphodiesterase assay data, IC50 values were determined for many of the peptides. The assay carried out for the determination in the IC50 values differed from the above screening assay by the concentration of the peptides being tested.
(2) W13: N-(4-aminobutyl)-5-chloro-2-naphtalenesulfonamide; (3) TFP: trifluoperazine; (4) Calmidasolium: (1-[bis-(4-chlorophenyl)methyl]-3[-2-(2,4-dichlorophenyl)-2[(2,4-dichlorophenyl)methoxy]-ethyl]-1H-imidazolium chloride. The IC50 values were calculated using sigmoidal curve software (Graphpad, ISI, San Diego) using the % inhibition at different mixture concentrations (see attached protocol for determination of % inhibition).

Regarding `CSCC[C@@H](NC(=O)[C@@H](CCSC)NC(=O)[C@@H](Cc1ccccc1)NC(=O)[C@@H](Cc1c[nH]cn1)NC(=O)[C@@H](CC(=O)O)NC(C)=O)C(=O)N[C@H](C)C(N)=O` [Ctr 2, Ac-(D)Asp-(D)His-(D)Phe-(D)Met-(D)Met-(D)-Ala-NH2, reference compound] (Ac-[dD][dH][dF][dM][dM][dA]-NH2), the inhibition at 50 µM is 35.5%.
Consider `CC[C@@H](C)[C@@H](NC(=O)[C@@H](CCC(N)=O)NC(=O)[C@@H](CC(C)C)NC(C)=O)C(=O)N[C@@H](C(=O)N[C@H](CC(C)C)C(=O)N[C@H](CCCNC(=N)N)C(N)=O)[C@H](C)CC` [Ac-(D)Leu-(D)Gln-(D)Ile-(D)Ile-(D)Leu-(D)Arg-NH2] (Ac-[dL][dQ][dI][dI][dL][dR]-NH2), for which the half-inhibitory concentration (IC50) was over 50 µM and the inhibition at 50 µM worked out at 15.8%.
For `CC[C@@H](C)[C@@H](NC(=O)[C@@H](CCC(N)=O)NC(=O)[C@@H](CC(C)C)NC(C)=O)C(=O)N[C@@H](C(=O)N[C@H](CC(C)C)C(=O)N[C@H](Cc1c[nH]c2ccccc12)C(N)=O)[C@H](C)CC` [Ac-(D)Leu-(D)Gln-(D)Ile-(D)Ile-(D)Leu-(D)Trp-NH2] (Ac-[dL][dQ][dI][dI][dL][dW]-NH2) the same measures were over 50 µM and 47.4%.
On the same counts, the results for `CC[C@@H](C)[C@@H](NC(=O)[C@@H](CCCNC(=N)N)NC(=O)[C@@H](Cc1c[nH]c2ccccc12)NC(=O)[C@@H](CC(C)C)NC(C)=O)C(=O)N[C@H](CC(C)C)C(=O)N[C@H](Cc1c[nH]c2ccccc12)C(N)=O` [Ac-(D)Leu-(D)Trp-(D)Arg-(D)Ile-(D)Leu-(D)Trp-NH2] (Ac-[dL][dW][dR][dI][dL][dW]-NH2) are 15 µM and 101%.
On the same counts, the results for `CC(=O)N[C@H](CC(C)C)C(=O)N[C@H](Cc1c[nH]c2ccccc12)C(=O)N[C@H](CCCNC(=N)N)C(=O)N[C@H](Cc1c[nH]cn1)C(=O)N[C@H](CC(C)C)C(=O)N[C@H](CCCNC(=N)N)C(N)=O` [Ac-(D)Leu-(D)Trp-(D)Arg-(D)His-(D)Leu-(D)Arg--NH2] (Ac-[dL][dW][dR][dH][dL][dR]-NH2) are over 50 µM and 39.5%.
As to `NCCCCNS(=O)(=O)c1ccc2c(Cl)cccc2c1` [Peptide W13, N-(4-aminobutyl)-5-chloro-2-naphtalenesulfonamide, reference compound], the 50% inhibitory concentration (IC50) was under 75 µM.
For the compound `CC[C@@H](C)[C@@H](NC(=O)[C@@H](Cc1c[nH]c2ccccc12)NC(=O)[C@@H](CC(C)C)NC(C)=O)C(=O)N[C@@H](C(=O)N[C@H](CC(C)C)C(=O)N[C@H](CCCNC(=N)N)C(N)=O)[C@H](C)CC` [Ac-(D)Leu-(D)Trp-(D)Ile-(D)Ile-(D)Leu-(D)Arg-NH2] (Ac-[dL][dW][dI][dI][dL][dR]-NH2), the half-inhibitory concentration (IC50) came out at 10 µM and the inhibition at 50 µM was determined as 85.5%.
For `CC[C@@H](C)[C@@H](NC(=O)[C@@H](Cc1c[nH]c2ccccc12)NC(=O)[C@@H](CC(C)C)NC(C)=O)C(=O)N[C@H](Cc1c[nH]cn1)C(=O)N[C@H](Cc1c[nH]cn1)C(=O)N[C@H](Cc1c[nH]c2ccccc12)C(N)=O` [Ac-(D)Leu-(D)Trp-(D)Ile-(D)His-(D)His-(D)Trp-NH2] (Ac-[dL][dW][dI][dH][dH][dW]-NH2) the same measures were 24 µM and 103%.
In the case of `CC(=O)N[C@H](CC(C)C)C(=O)N[C@H](CCC(N)=O)C(=O)N[C@H](CCCNC(=N)N)C(=O)N[C@H](Cc1c[nH]cn1)C(=O)N[C@H](Cc1c[nH]cn1)C(=O)N[C@H](Cc1c[nH]c2ccccc12)C(N)=O` [Ac-(D)Leu-(D)Gln-(D)Arg-(D)His-(D)His-(D)Trp-NH2] (Ac-[dL][dQ][dR][dH][dH][dW]-NH2), the inhibition at 50 µM was 79%.
The same measure, in the same setting: the figure for `CC[C@@H](C)[C@@H](NC(=O)[C@@H](Cc1c[nH]c2ccccc12)NC(=O)[C@@H](CC(C)C)NC(C)=O)C(=O)N[C@H](Cc1c[nH]cn1)C(=O)N[C@H](CC(C)C)C(=O)N[C@H](Cc1c[nH]c2ccccc12)C(N)=O` [Ac-(D)Leu-(D)Trp-(D)Ile-(D)His-(D)Leu-(D)Trp-NH2] (Ac-[dL][dW][dI][dH][dL][dW]-NH2) is 103%.
As to `CC[C@@H](C)[C@@H](NC(=O)[C@@H](CCCNC(=N)N)NC(=O)[C@@H](CCC(N)=O)NC(=O)[C@@H](CC(C)C)NC(C)=O)C(=O)N[C@H](CC(C)C)C(=O)N[C@H](CCCNC(=N)N)C(N)=O` [Ac-(D)Leu-(D)Gln-(D)Arg-(D)Ile-(D)Leu-(D)Arg-NH2] (Ac-[dL][dQ][dR][dI][dL][dR]-NH2), the IC50 is over 50 µM and the inhibition at 50 µM is -13.2%.
In the case of `CC[C@@H](C)[C@@H](NC(=O)[C@@H](CCC(N)=O)NC(=O)[C@@H](CC(C)C)NC(C)=O)C(=O)N[C@@H](C(=O)N[C@H](Cc1c[nH]cn1)C(=O)N[C@H](Cc1c[nH]c2ccccc12)C(N)=O)[C@H](C)CC` [Ac-(D)Leu-(D)Gln-(D)Ile-(D)Ile-(D)His-(D)Trp-NH2] (Ac-[dL][dQ][dI][dI][dH][dW]-NH2), the inhibition at 50 µM worked out at 35.5%.
Take `CC(=O)N[C@H](CC(C)C)C(=O)N[C@H](Cc1c[nH]c2ccccc12)C(=O)N[C@H](CCCNC(=N)N)C(=O)N[C@H](Cc1c[nH]cn1)C(=O)N[C@H](CC(C)C)C(=O)N[C@H](Cc1c[nH]c2ccccc12)C(N)=O` [Ac-(D)Leu-(D)Trp-(D)Arg-(D)His-(D)Leu-(D)Trp-NH2] (Ac-[dL][dW][dR][dH][dL][dW]-NH2): the IC50 was at most 10 µM and the inhibition at 50 µM turned out to be 90.8%.
As to `CC(=O)N[C@H](CC(C)C)C(=O)N[C@H](CCC(N)=O)C(=O)N[C@H](CCCNC(=N)N)C(=O)N[C@H](Cc1c[nH]cn1)C(=O)N[C@H](Cc1c[nH]cn1)C(=O)N[C@H](CCCNC(=N)N)C(N)=O` [Ac-(D)Leu-(D)Gln-(D)Arg-(D)His-(D)His-(D)Arg-NH2] (Ac-[dL][dQ][dR][dH][dH][dR]-NH2), the inhibition at 50 µM turned out to be 63.2%.
Same read-out and setting: the value for `CC[C@@H](C)[C@@H](NC(=O)[C@@H](CCC(N)=O)NC(=O)[C@@H](CC(C)C)NC(C)=O)C(=O)N[C@H](Cc1c[nH]cn1)C(=O)N[C@H](CC(C)C)C(=O)N[C@H](CCCNC(=N)N)C(N)=O` [Ac-(D)Leu-(D)Gln-(D)Ile-(D)His-(D)Leu-(D)Arg-NH2] (Ac-[dL][dQ][dI][dH][dL][dR]-NH2) was 28.9%; that for `CC(=O)N[C@H](CC(C)C)C(=O)N[C@H](Cc1c[nH]c2ccccc12)C(=O)N[C@H](CCCNC(=N)N)C(=O)N[C@H](Cc1c[nH]cn1)C(=O)N[C@H](Cc1c[nH]cn1)C(=O)N[C@H](Cc1c[nH]c2ccccc12)C(N)=O` [Ac-(D)Leu-(D)Trp-(D)Arg-(D)His-(D)His-(D)Trp-NH2] (Ac-[dL][dW][dR][dH][dH][dW]-NH2) was 36.8%.
Regarding `CC[C@@H](C)[C@@H](NC(=O)[C@@H](CCCNC(=N)N)NC(=O)[C@@H](CCC(N)=O)NC(=O)[C@@H](CC(C)C)NC(C)=O)C(=O)N[C@H](Cc1c[nH]cn1)C(=O)N[C@H](Cc1c[nH]c2ccccc12)C(N)=O` [Ac-(D)Leu-(D)Gln-(D)Arg-(D)Ile-(D)His-(D)Trp-NH2] (Ac-[dL][dQ][dR][dI][dH][dW]-NH2), the IC50 came out at 40 µM and the inhibition at 50 µM was found to be 34.2%.
As to `CC[C@@H](C)[C@@H](NC(=O)[C@@H](CCC(N)=O)NC(=O)[C@@H](CC(C)C)NC(C)=O)C(=O)N[C@H](Cc1c[nH]cn1)C(=O)N[C@H](Cc1c[nH]cn1)C(=O)N[C@H](CCCNC(=N)N)C(N)=O` [Ac-(D)Leu-(D)Gln-(D)Ile-(D)His-(D)His-(D)Arg-NH2] (Ac-[dL][dQ][dI][dH][dH][dR]-NH2), the inhibition at 50 µM was determined as 43.4%.
